In patent US20100120776A1, “Carbocysteine medical foods” (Hall Bioscience Corporation, priority 2008, published 2010):

How the values were obtained:
in vivo = settings: beagle, dog, plasma
Protocol: (§1) A study was conducted in dogs to determine the pharmacokinetics and bioavailability of a buccal formulation of carbocysteine in comparison to oral and IV routes of administration.
(§2) The study was conducted according to the following methodology. A 400 mg dissolving tablet, a 400 mg oral tablet, and a 200 mg IV dose of carbocysteine were administered to each of five beagle dogs in a randomized crossover pattern. […] The dissolving tablet was administered to the animal by placing the tablet in the mouth until it dissolved. The oral tablet was administered by forcing the animal to swallow the tablet. […] Plasma concentrations were measured by precolumn derivatization of S-carboxymethylcysteine using o-phthaldialdehyde (OPA) and subsequent HPLC analysis. All data were analyzed using WinNonlin®, a tool for pharmacokinetic and pharmacodynamic analysis. The carbocysteine plasma data was fitted to a one-compartment model with first-order elimination. The pharmacokinetic parameters (t1/2, CL, Vd) generated from each route of administration were compared using analysis of variance (ANOVA) to detect statistically significant differences. A paired t-test was used to detect the differences in Cmax, Tmax, Ka, and F between buccal and oral routes of administration.

[1] = Buccal availability study: pharmacokinetics and bioavailability of carbocysteine in dogs (buccal vs oral vs IV); settings: beagle dogs; range across buccal and oral routes; no significant differences
Protocol: as §1, §2

SMILES: N[C@@H](CSCC(=O)O)C(=O)O [carbocysteine, S-carboxymethyl-L-cysteine]
- Vd (in vivo): 0.405 to 0.418 L/kg
- clearance (in vivo): 4.52 to 4.64 mL/min/kg
- half-life (in vivo): 1.02 to 1.07 h
- Tmax (in vivo; 400 mg): 1.5 to 1.55 h
- Ka [1]: 0.028−0.034 min^−1
